What was measured:
[1] = DPPH free radical scavenging assay (cell free); format: biochemical; conditions: 35° C., 30 min
Experimental: (§1) The antioxidant activity of Microsan from Microbacterium sp. strain BS-2 and Brevisan from Brevibacillus sp. strain BS-207 in cell free system was measured by its inhibitory activity on the generation of DPPH free radicals, superoxide anions (O^2−), lipid peroxidation and erythrocyte hemolysis. The DPPH free radical scavenging assay was performed using 2,2-diphenyl-1-picrylhydrazyl (DPPH) free radical scavenging method [Ara. N. and Hasan, N. (2009) Res. J. Med. Medical Sci. 4, 107-110]. Different concentrations of Microsan and Brevisan were mixed individually with 150 μl of 160 μM methanolic solution of DPPH and incubated at 35° C. for 30 min in dark. The effective concentration (EC50) was calculated by measuring the absorbance of the samples at 517 nm. The superoxide anion scavenging was measured using phenazine methosulfate-nicotinamide adenine dinucleotide (PMS/NADH) method as previously described [Liu, F., Ooi, V. E. and Chang, S. T. (1997) Life Sci. 60, 763-771]. The lipid peroxidation assay was performed using the previously described method [Zhang, Q., Yu, P., Li, Z., Zhang, H., Xu, Z. and Li, P. (2003) J. Appl. Phycol. 15, 305-310] which is based on measuring the lipid peroxide decomposed product malondialdehyde (MDA). […] Samples were incubated at 37° C. for 30 min and the absorbance was measured at 540 nm. […]

[2] = Superoxide anion scavenging (PMS/NADH method); format: biochemical; conditions: cell free
Experimental: as §1

[3] = Lipid peroxidation assay (malondialdehyde); format: biochemical; conditions: cell free
Experimental: as §1

[4] = tested on: Bacillus subtilis MTCC 121; assay: Microtiter broth dilution MIC; format: cell-based; conditions: Bacillus subtilis MTCC 121, 24 h, 35° C.
Experimental: (§2) The antimicrobial activity of Microsan and M-EPS-Au-NP was determined using the microtiter broth dilution method [Kumar, C. G. and Mamidyala, S. K. (2011) Coll. Surf B: Biointerf. 84, 462-466]. Different bacterial pathogens (10^7 cfu ml^−1 cells) were inoculated in 100 μl of Muller-Hinton broth. Different concentrations of Microsan, M-EPS-Au-NP and Brevisan were added to each strain and incubated for 24 h at 35° C. After incubation, 40 μl of p-iodonitrotetrazolium (INT, Sigma) dye (0.02%, 20 mg INT dissolved in 100 ml of 40% dimethyl formamide was added to each well and incubated for 2 h. The reduction of p-iodonitrotetrazolium was spectroscopically measured at 450 nm using TRIAD multimode reader (Dynex Technologies, Inc., Chantilly, Va.) to determine the minimum inhibitory concentration (MIC) values. Commercially available surfactin (CAS 24730-31-2; Sigma-Aldrich) and laminarin (CAS No 9008-22-4; Sigma-Aldrich) used as positive controls were run in parallel for comparison. The MIC values of Microsan and M-EPS-Au-NP observed against the tested bacterial strains are shown in Table 3.

[5] = tested on: Escherichia coli MTCC 739; assay: Microtiter broth dilution MIC; format: cell-based; conditions: Escherichia coli MTCC 739, 24 h, 35° C.
Experimental: as §2

[6] = tested on: Klebsiella planticola MTCC 530; assay: Microtiter broth dilution MIC; format: cell-based; conditions: Klebsiella planticola MTCC 530, 24 h, 35° C.
Experimental: as §2

[7] = tested on: Micrococcus luteus MTCC 2470; assay: Microtiter broth dilution MIC; format: cell-based; conditions: Micrococcus luteus MTCC 2470, 24 h, 35° C.
Experimental: as §2

[8] = tested on: Pseudomonas aeruginosa MTCC 2453; assay: Microtiter broth dilution MIC; format: cell-based; conditions: Pseudomonas aeruginosa MTCC 2453, 24 h, 35° C.
Experimental: as §2

[9] = tested on: Staphylococcus aureus MLS16 MTCC 2940; assay: Microtiter broth dilution MIC; format: cell-based; conditions: Staphylococcus aureus MLS16 MTCC 2940, 24 h, 35° C.
Experimental: as §2

[10] = tested on: Staphylococcus aureus MTCC 96; assay: Microtiter broth dilution MIC; format: cell-based; conditions: Staphylococcus aureus MTCC 96, 24 h, 35° C.
Experimental: as §2

RAW 264.7 macrophages = assay: In vitro MTT assay, proliferation of RAW 264.7 macrophages; format: cell-based, mouse; conditions: 200 μg ml-1, 48 h
Experimental: The effect of Brevisan, Microsan and M-EPS-Au-NP on the proliferation of RAW 264.7 macrophages (ATCC No. CRL-2278) was measured by in vitro MTT assay using the previously described method [Mosmann, T. (1983) J. Immunol. Methods 65, 55-63], which is based on the cell-mediated reduction of tetrazolium salt to form water insoluble formazan crystals. The MTT assay was performed with different concentrations (1-200 μg ml-1) of Brevisan, Microsan and M-EPS-Au-NP were incubated for 48 h using laminarin as a control.

TNF-α in RAW 264.7 cells = assay: LPS-induced TNF-α ELISA in RAW 264.7 cells; format: cell-based, mouse; conditions: 50 μg ml^−1; LPS 100 ng ml^−1 24 h; LPS alone 215.79
Experimental: The effect of Brevisan, Microsan and M-EPS-Au-NP on the release of proinflammatory cytokines, TNF-α and IL-6, was measured using ELISA kits (Biosource International, Camarillo, Calif., USA). In independent experiments, the RAW-264.7 cells were treated with different concentrations (1, 10, 50 and 100 μg ml^−1) of Brevisan, Microsan and M-EPS-Au-NP and then stimulated with 100 ng ml^−1 of LPS. The supernatants were harvested after 24 h and the concentrations of TNF-α and IL-6 was measured using an ELISA kit according to the manufacturer's instructions.

[11] = Emulsification index (EI24); format: physicochemical; conditions: 24 h
Experimental: The surface tension of the purified Microsan from Microbacterium sp. strain BS-2 and Brevisan from Brevibacillus sp. strain BS-207 was measured by Wilhelmy plate method using a Du-Nouy K100MK2 Processor Tensiometer (Krüss, Hamburg, Germany) which reduced the surface tension of water from 72 to 31.2 mN m^−1. The interfacial tension value was measured by Du-Nouy ring method and it was determined as 25.7 mN m. The critical micelle concentration (CMC) was measured by plotting the concentration of EPS as a function of surface tension. The CMC is the point where the slope of the curve abruptly changed was determined as 75 mg l^−1. The emulsification index (EI24) was determined by the addition of 4 ml of culture supernatant to 6 ml of various hydrocarbons (N-Hexadecane, tridecane, hexane, toluene and xylene) and oils (mineral oil and soybean oil) and the mixtures were vortexed for 2 min and allowed to stand for 24 h. The emulsification index (EI24) values expressed as the percentage of height of emulsified layer to the height of total liquid column.

β-D-glucuronyl-(1-2)-D-mannosyl-(1-4)-D-glucose [Microsan]
EC50 DPPH free radical scavenging [1]: 40.78 µg/mL | EC50 superoxide anions (O^2−) scavenging [2]: 24.48 µg/mL | EC50 lipid peroxidation inhibition [3]: 165.94 µg/mL | Minimum inhibitory concentration (MIC) [4]: 4.68 µg/mL | Minimum inhibitory concentration (MIC) [5]: >300 µg/mL | Minimum inhibitory concentration (MIC) [6]: 9.37 µg/mL | Minimum inhibitory concentration (MIC) [7]: >300 µg/mL | Minimum inhibitory concentration (MIC) [8]: >300 µg/mL | Minimum inhibitory concentration (MIC) [9]: 4.68 µg/mL | Minimum inhibitory concentration (MIC) [10]: 18.75 µg/mL | cell proliferation (MTT) (RAW 264.7 macrophages): 89.07% | TNF-α production after treatment (TNF-α in RAW 264.7 cells): 98.88 µg/mL | emulsification index (EI24) ([11]; N-hexadecane): 67% | emulsification index (EI24) ([11]; hexane): 83.7% | emulsification index (EI24) ([11]; mineral oil): 71.9% | emulsification index (EI24) ([11]; soybean oil): 63% | emulsification index (EI24) ([11]; toluene): 74.9% | emulsification index (EI24) ([11]; tridecane): 77% | emulsification index (EI24) ([11]; xylene): 66.89%

Reference: patent US10106627B2, “Process for the preparation of polymeric biosurfactants” (priority 2014, dated 2018)
